Measurements published in US20060264509A1, “Methods for treating pain using smooth muscle modulators and a2 subunit calcium channel modulators” (priority 2003, published 2006).
Several values for one entry are separate records, joined by “and”; a condition that tells them apart may be missing. Equal entries are not always repeated. Where two headings read alike, the source gives them in different places.

Experiments:
bladder capacity = assay: Dilute acetic acid irritative model, bladder capacity by cystometry in urethane-anesthetized rats; format: in vivo, rat; settings: for effectiveness of drug alone on bladder capacity: i.v.; for effective dose range of the drug in the isobologram combinations compared with the drug alone: individual animals, return to 31% of saline control
Procedure: Subsequently, three series at markedly lower doses and at different dose ratios were performed for the purposes of isobologram construction (n=4/group).
Subsequent studies aimed at isobologram construction combined the drugs in dose combinations as shown in the table below (low, middle and high doses for each drug paired).
The abdominal cavity was moistened with saline and closed by covering with a thin plastic sheet in order to maintain access to the bladder for emptying purposes.
Bladder capacity data for each animal were normalized to “% Recovery from Irritation,” and this index was used as the measure of efficacy. Data from experiments in which each of the drugs were administered alone were utilized to create theoretical populations of additive effects for each dose (low, mid and high), and these were compared by one-tailed t-test (individual dose comparisons) and by 2-Way ANOVA (across doses) to the actual combination drug data. The means and standard deviations of each individual treatment's “dose-matched” (low, middle, and high) responses were added together to estimate the mean and standard deviation of the theoretical additive populations for which to compare to the actual data obtained from the combination experiments. The theoretical additive effect population N=(Nantimuscarinic+Nα28 subunit modulator)−1. P<0.050 was considered significant.
Isobologram construction consisted of two methods, both utilizing the same data, but plotting the results either as group means or by individual responses. […] When utilizing individual responses for both drugs alone and the combinations listed in the above table, the target value was 31% of saline control. […] For statistical purposes, the data were analyzed making comparisons for each drug, regardless of whether alone or in combination.

[1] = for pharmacokinetic drug-drug interaction between oxybutynin and gabapentin: rat, i.v. 3 mg/kg oxybutynin and 100 mg/kg gabapentin
beta-adrenergic blocking = settings: cited from earlier work
[2] = preclinical and clinical studies, cited from earlier work
[3] = test system: nociception induced by formalin and carrageenan; mechanical hyperalgesia and mechanical/thermal allodynia; settings: Rose et al. (2002); cited from earlier work
[4] = test system: painful symptoms associated with diabetic peripheral neuropathy, post-herpetic neuralgia, and neuropathic pain; settings: double-blind, placebo-controlled trials; cited from earlier work
[5] = analyte gabapentin in rat plasma, i.v. 100 mg/kg gabapentin alone (Gab) or with 3 mg/kg oxybutynin (Com), group Mean
[6] = analyte gabapentin in rat plasma, i.v. 100 mg/kg gabapentin alone (Gab) or with 3 mg/kg oxybutynin (Com), group Mean, outliers excluded
[7] = analyte gabapentin in rat plasma, i.v. 100 mg/kg gabapentin alone (Gab) or with 3 mg/kg oxybutynin (Com), individual animals

In the case of CCN(CC)CC#CCOC(=O)C(O)(c1ccccc1)C1CCCCC1 (stereo not drawn) [Oxy, 4-diethylaminio-2-butynyl phenylcyclohexyglycolate], the “effectiveness of drug alone on bladder capacity” value (bladder capacity) is reported as “modest effectiveness”, the “effective dose range of the drug in the isobologram combinations compared with the drug alone” value (bladder capacity) is reported as “significantly lower” and the “pharmacokinetic drug-drug interaction between oxybutynin and gabapentin” value [1] is reported as “No evidence of drug-drug interaction”.
In the case of CCNCC#CCOC(=O)C(O)(c1ccccc1)C1CCCCC1 (stereo not drawn) [desethyl oxybutynin, N-desethyl-oxybutynin], the “comparison of Cmax and AUC0-t data for desethyl oxybutynin between oxybutynin (Oxy) group and combination (Com) group” value ([1]; rat plasma, i.v., Table 4) is reported as “no appreciable difference”.
In the case of CC(C)NCC(O)COc1cccc2ccccc12 (stereo not drawn) [propranolol], the “potency of L-enantiomer relative to D-enantiomer” value (beta-adrenergic blocking) is listed as 100 times.
In the case of CC(OC(=O)NCC1(CC(=O)O)CCCCC1)OC(=O)C(C)C (stereo not drawn) [XP13512], the “blood levels of gabapentin across a broad range of oral doses” value ([2]; oral) is listed as “dose proportional” and the “absorption from the large intestine” value [2] is listed as “absorbed efficiently”.
With NCC1(CC(=O)O)CCCCC1 [Gab, 1-(aminomethyl) cyclohexaneacetic acid] the “effectiveness of drug alone on bladder capacity” value (bladder capacity) was “modest effectiveness”, the “effective dose range of the drug in the isobologram combinations compared with the drug alone” value (bladder capacity) was “significantly lower” and the “AUC0-∞” value [1, 5] was 1.62e+07 ng·min/mL. The CL [1, 5] was 6.52 mL/min/kg, the Vz [1, 5] was 1.242 L/kg and the t1/2 [1, 5] was 128 min. For the same molecule, the AUC0-t [1, 6] was 9.45e+06 ng·min/mL, the Cmax [1, 6] was 98.6 µg/mL and the “AUC0-∞” value [1, 7] was 1.95e+07 ng·min/mL. The CL [1, 7] was 5.12 mL/min/kg, the Tmax [1, 7] was 15 min and 30 min and the Vz [1, 7] was 0.91 L/kg and 0.89 L/kg. The “comparison of Cmax and AUC0-T data for gabapentin between single-drug group and combination (Com) group” value ([1]; rat plasma, i.v., Table 2) was “no appreciable difference”, the “pharmacokinetic drug-drug interaction between oxybutynin and gabapentin” value [1] was “No evidence of drug-drug interaction” and the “effect in neuropathic pain models of mechanical hyperalgesia and mechanical/thermal allodynia” value [3] was “inhibitory effect”. For the same molecule, the “effect on nociception induced by formalin and carrageenan” value [3] was “block the tonic phase of nociception” and the “efficacy for painful symptoms associated with diabetic peripheral neuropathy, post-herpetic neuralgia, and neuropathic pain” value [4] was “effective treatment”.
